Where two headings read alike, the source gives them in different places.
Columns and labels:
[1] = open-tubular capillary electrochromatography (CEC), permeability k′ parameter; format: in vitro ADME; conditions: pH 7.4 HEPES buffer 40 mM, migration times in coated and uncoated capillary, mean ± SD of three independent experiments
Protocol: The separation HEPES buffer, POPC/PS liposomes (80:20 mol% ratio; large unilamellar vesicles type; LUV), and test samples were prepared according to the protocol described earlier [45]. […] To complete the coating procedure, the capillary was left to stand filled with the liposome solution for 15 min.
Since the reference drugs tested in this study are compounds ionized at pH 7.4, their migration times determined in the uncoated and coated capillary variants were used in the k′ permeability parameter calculations. At first, the experiments were conducted in the liposome-untreated capillary. Next, after coating the capillary with the inner liposomal layer, the migration times of analytes were evaluated once again in the coated one. […] The pH 7.4 HEPES buffer (40 mM) was used as the background electrolyte solution in all CEC experiments.
The CEC permeability k′ parameter was calculated for each reference drug based on its experimentally determined migration times in the uncoated and coated capillary variants using Equation (2) [56]:(2) k^′=tR(1/tEOF+ 1/tR^′− 1/tEOF^′)−1 where tR and tEOF are the migration times of the analyte and EOF marker in the coated capillary, respectively, and tR′ and tEOF′ are analogical migration times in the uncoated capillary.

physchem [2] = conditions: for logD: pH 7.4
Protocol: (§1) Using the Sirius T3 device, the physicochemical properties of the reference drugs were determined by automated potentiometric titrations. The compounds’ acidity was measured by determining their pKa parameters. […] The obtained psKa values were next extrapolated to the 0% content of methanol (pure ISA water) using the Yasuda–Shedlovsky extrapolation plots. The lipophilicity of the research compounds (log P parameters) was measured by the automated potentiometric method as well, based on the previously obtained compounds’ pKa values. The aqueous pH-metric titrations were carried out in the presence of n-octanol—an immiscible water partition solvent. […] The log P parameters were determined based on the differences between the apparent poKa and aqueous pKa values in three independent titrations conducted with diverse volume ratios of the aqueous and n-octanol phases. Log D7.4 values were calculated automatically by the Sirius T3 Refine software (version 2.0.0.0) based on the obtained log P and pKa values.

[3] = cited from earlier work
[4] = Sirius T3 automated potentiometric (pH-metric) titrations, pKa
Protocol: as §1

[5] = Sirius T3 automated potentiometric titrations with n-octanol, log P / log D; conditions: for Log D7.4: calculated based on the experimentally obtained pKa and log P data
Protocol: as §1

physchem [6] = experiment: physchem
Protocol: as §1

[7] = experimental in vivo measurements from rats, data retrieved from literature
[8] = ionic strength adjusted (ISA) water ([…] KCl), pKa ± SD, […] ISA water or Yasuda–Shedlovsky extrapolation from methanol cosolvent, value used for regression

Structure (SMILES) | k′ ± SD (CEC) [1] | logD (physchem [2]) | Log BB [3, 7] | Log BB ([3]; rat, in vivo) | further results
CCN(C)C(=O)Oc1cccc([C@H](C)N(C)C)c1 [rivastigmine] | −0.00018 ± 0.00009 | 0.66 |  |  | 
CN(C)C(=O)C(CCN1CCC(O)(c2ccc(Cl)cc2)CC1)(c1ccccc1)c1ccccc1 [loperamide] | 0.0147 ± 0.00102 | 3.21 | 0.70 |  | 
COc1ccc2c3c1O[C@H]1C[C@@H](O)C=C[C@@]31CCN(C)C2 [galanthamine] |  | 0.18 |  | 0.00 | logP (physchem [2]): 1.15
COc1ccc2c3c1O[C@H]1[C@@H](O)C=C[C@H]4[C@@H](C2)N(C)CC[C@@]341 [codeine] | −0.01188 ± 0.00888 | 0.26 |  | 0.55 | logP (physchem [2]): 1.14 ± 0.01
CCC1(c2ccccc2)C(=O)NC(=O)NC1=O [phenobarbital] | −0.01824 ± 0.00855 | 0.98 |  | −0.12 | 
CCC1(C2=CCCCC2)C(=O)NC(=O)NC1=O [cyclobarbital] | 0.00186 ± 0.00088 | 1.16 |  | −0.30 | 
O=C(O)CCCc1ccc(N(CCCl)CCCl)cc1 [chlorambucil] | 0.00397 ± 0.00087 | 1.07 | −1.70 |  | logP (physchem [2]): 3.71 ± 0.02; pKa [4]: 4.72 ± 0.04
CC(C)(C)NCC(O)c1ccc(O)c(CO)c1 (stereo not shown) [salbutamol] | −0.0103 ± 0.00502 |  | −1.03 |  | logP ([5]; n-octanol/water): 0.3 ± 0.04; Log D7.4 ([5]; pH 7.4): −1.90; pKa [4, 8]: 9.6 ± 0.01
CCCN(CCC)CCc1cccc2c1CC(=O)N2 [ropinirole] | −0.01252 ± 0.00126 |  |  |  | pKa (physchem [6]): 9.7 ± 0.05
S=C(NC1CCCCC1)N1CCC(c2cnc[nH]2)CC1 [thioperamide] | 0.01849 ± 0.00363 | 2.27 | −0.16 |  | 
CNC(=O)Oc1ccc2c(c1)[C@]1(C)CCN(C)[C@@H]1N2C [physostigmine] | 0.01268 ± 0.00087 |  |  | 0.08 | pKa (physchem [6]): 8.24 ± 0.04
COc1ccc(C(CN(C)C)C2(O)CCCCC2)cc1 (stereo not shown) [venlafaxine] | −0.01411 ± 0.00205 |  | 0.48 |  | logP ([5]; n-octanol/water): 2.97; logD ([5]; n-octanol/water, pH 7.4): 0.7; pKa [4, 8]: 9.67 ± 0.02
Cc1ccc(/C(=C\CN2CCCC2)c2ccccn2)cc1 [triprolidine] | 0.01006 ± 0.00233 |  | 0.78 |  | logP ([5]; n-octanol/water): 3.87 ± 0.01; Log D7.4 ([5]; pH 7.4): 1.88; pKa [4, 8]: 9.39 ± 0.06
